≈ marks a conversion by molar mass, not a printed value.
Experiments:
K562 = assay: Cytotoxicity against human K562 cells; type: functional; details: read-out: LC50 (the source's name)
Sortase A = target: T1, Sortase A (Staphylococcus aureus, UniProt Q9S446); assay: Inhibition of recombinant Staphylococcus aureus ATCC 6538p sortase lacking the N-terminal membrane anchor domain expressed in Escherichia coli cells TOP10 using Dabcyl-QALPETGEE-Edans substrate measured after 1 hr by fluorescence S13 spectrophotometry
T1 sequence (Q9S446 whole entry): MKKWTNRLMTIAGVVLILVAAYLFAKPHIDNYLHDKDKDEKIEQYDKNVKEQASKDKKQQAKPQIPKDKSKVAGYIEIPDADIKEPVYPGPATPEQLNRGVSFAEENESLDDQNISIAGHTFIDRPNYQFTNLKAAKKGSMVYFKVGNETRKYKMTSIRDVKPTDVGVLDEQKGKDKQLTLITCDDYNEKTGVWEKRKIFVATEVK

Isocitrate lyase = Isocitrate lyase (Candida albicans, UniProt Q9P8Q7); assay: Inhibition of Candida albicans isocitrate lyase
Isocitrate lyase, sequence (Q9P8Q7 whole entry): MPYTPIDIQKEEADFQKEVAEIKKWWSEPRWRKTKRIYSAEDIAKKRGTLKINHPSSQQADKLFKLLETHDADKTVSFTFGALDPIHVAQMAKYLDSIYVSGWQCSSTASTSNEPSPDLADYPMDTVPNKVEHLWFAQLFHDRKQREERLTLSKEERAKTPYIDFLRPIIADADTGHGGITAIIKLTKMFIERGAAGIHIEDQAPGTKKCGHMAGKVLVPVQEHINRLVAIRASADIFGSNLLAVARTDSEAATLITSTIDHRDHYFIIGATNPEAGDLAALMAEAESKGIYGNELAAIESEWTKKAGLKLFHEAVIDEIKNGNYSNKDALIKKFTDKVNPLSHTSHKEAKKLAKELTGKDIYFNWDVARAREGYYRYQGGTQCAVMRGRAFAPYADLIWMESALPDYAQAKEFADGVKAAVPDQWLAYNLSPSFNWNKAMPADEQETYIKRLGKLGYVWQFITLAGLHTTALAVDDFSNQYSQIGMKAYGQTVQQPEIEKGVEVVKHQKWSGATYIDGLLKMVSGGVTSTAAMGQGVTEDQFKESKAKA

[1] = target: Sodium/potassium-transporting ATPase; assay: Inhibition of human Na(+)/K(+) ATPase assessed as reduction in ouabain-sensitive and K(+)-dependent cleavage of fluorescent pseudosubstrate 3-O-methylfluorescein phosphate by fluorometric method; type: protein-complex assay
Staphylococcus aureus = assay: Antimicrobial activity against Staphylococcus aureus ATCC 6538p; type: functional
Bacillus subtilis = assay: Antimicrobial activity against Bacillus subtilis ATCC 6633; type: functional
Escherichia coli = assay: Antimicrobial activity against Escherichia coli ATCC 35270; type: functional
Aspergillus fumigatus = assay: Antimicrobial activity against Aspergillus fumigatus HIC 6094; type: functional
Trichophyton rubrum = assay: Antimicrobial activity against Trichophyton rubrum IFO 9185; type: functional
[2] = test system: Trichophyton mentagrophytes; assay: Antimicrobial activity against Trichophyton mentagrophytes IFO 40996; type: functional
Candida albicans = assay: Antimicrobial activity against Candida albicans ATCC 10231; type: functional
Micrococcus luteus = assay: Antimicrobial activity against Micrococcus luteus IFO 12708; type: functional
Salmonella typhimurium = assay: Antimicrobial activity against Salmonella Typhimurium ATCC 14028; type: functional, Salmonella enterica subsp. enterica serovar Typhimurium; details: Salmonella enterica
Proteus vulgaris = assay: Antimicrobial activity against Proteus vulgaris ATCC 3851; type: functional

Row | SMILES | CC50 (K562) [µM] | IC50 (Sortase A) [µM] | IC50 (Isocitrate lyase) [µM] | IC50 [1] [µM] | MIC (Staphylococcus aureus) [µg/mL] | MIC (Bacillus subtilis) [µg/mL] | MIC (Escherichia coli) [µg/mL] | MIC (Aspergillus fumigatus) [µg/mL] | MIC (Trichophyton rubrum) [µg/mL] | MIC [2] [µg/mL] | MIC (Candida albicans) [µg/mL] | MIC (Micrococcus luteus) [µg/mL] | MIC (Salmonella typhimurium) [µg/mL] | MIC (Proteus vulgaris) [µg/mL]
1 | CC1=CC[C@H]2C(C)(C)CCC[C@]2(C)[C@H]1C[C@@H](OS(=O)(=O)[O-])[C@H](C)CCC/C(C)=C/Cc1cc(O)ccc1O.[Na+] [HALISULFATE 1] | > 200 | 36 | 19 | 3 | 50 | 3.13 | > 100 | > 100 | > 100 | > 100 | > 100 | – | – | –
2 | COc1cccc2c1C(=O)c1c(O)c3c(c(O)c1C2=O)C[C@@](O)(C(=O)CO)C[C@@H]3O[C@H]1C[C@H](N)[C@H](O)[C@H](C)O1 [DOXORUBICIN] | 13 | – | – | – | – | – | – | – | – | – | – | – | – | –
3 | CC1(C)CCC[C@]2(C)[C@H]3CC/C(=C\OS(=O)(=O)[O-])[C@H](CCc4ccoc4)[C@@]3(C)CC[C@@H]12.[Na+] [SUVANINE'S SODIUM SALT] | 16 | > 200 | 5 | 9 | 25 | 1.56 | > 100 | > 100 | > 100 | > 100 | > 100 | 25 | 50 | 25
4 | CC1=CC[C@H]2C(C)(C)CCC[C@]2(C)[C@H]1C/C=C(/C)CCC/C(C)=C/Cc1cc(O)ccc1O [COSCINOQUINOL] | 8 | > 200 | > 200 | 44 | > 100 | 3.25 (≈ 7.21 µM) | > 100 | > 100 | > 100 | > 100 | > 100 | 25 (≈ 55.5 µM) | 25 (≈ 55.5 µM) | 6.25 (≈ 13.9 µM)
5 | CC1(C)CCC[C@]2(C)[C@H]3CC/C(=C\OS(=O)(=O)[O-])[C@H](CCc4ccoc4)[C@@]3(C)CC[C@@H]12.C[N+](C)=C(N)N [SUVANINE] | > 200 | > 200 | 17 | 8 | 100 | 1.56 | > 100 | > 100 | > 100 | > 100 | > 100 | > 100 | 50 | > 100
6 | C=C1CC[C@H]2C(C)(C)CCC[C@]2(C)[C@H]1C[C@@H](OS(=O)(=O)[O-])[C@H](C)CCC/C(C)=C/Cc1cc(O)ccc1O.[Na+] | > 200 | 98 | 45 | 4 | – | – | > 100 | > 100 | > 100 | > 100 | > 100 | – | – | –
7 | CO[C@H]1C=C(CC[C@H]2/C(=C/OS(=O)(=O)[O-])CC[C@H]3[C@]2(C)CC[C@H]2C(C)(C)CCC[C@]32C)C(=O)O1.[Na+] | 45 | > 200 | 165 | 17 | > 100 | > 100 | > 100 | > 100 | > 100 | > 100 | > 100 | > 100 | > 100 | > 100
8 | CC1=CC[C@H]2C(C)(C)CCC[C@]2(C)[C@H]1C[C@@H](OS(=O)(=O)[O-])[C@H](C)CCC/C(C)=C\Cc1cc(O)ccc1O.[Na+] | > 200 | 100 | 52 | 5 | > 100 | > 100 | > 100 | > 100 | > 100 | > 100 | > 100 | > 100 | > 100 | > 100
9 | CO[C@H]1C=C(CC[C@H]2/C(=C/OS(=O)(=O)[O-])CC[C@H]3[C@]2(C)CC[C@H]2C(C)(C)CCC[C@]32C)[C@@H](OC)O1.[Na+] | 49 | > 200 | 87 | 14 | > 100 | > 100 | > 100 | > 100 | > 100 | > 100 | > 100 | > 100 | > 100 | > 100
10 | CC1(C)CCC[C@]2(C)[C@H]3CC/C(=C\OS(=O)(=O)[O-])[C@H](CCC4=CC(=O)O[C@@H]4O)[C@@]3(C)CC[C@@H]12.[Na+] | 59 | > 200 | – | 5 | > 100 | > 100 | > 100 | > 100 | > 100 | > 100 | > 100 | > 100 | > 100 | > 100

Reference: ChEMBL document CHEMBL1817623, “Sesterterpenes from the tropical sponge Coscinoderma sp” (J Nat Prod, 2011)
